Reference: doi:10.1101/2025.05.29.656781v1 (biorxiv, 2025)
Numbering of substitutions follows the chain as printed.

Tests used:
KV4.3/KChIP3 [1] = molecular target: T1, KV4.3/KChIP3 (Homo sapiens, UniProt Q9Y2W7); assay: whole-cell patch clamp, peak current at +[…] mV; type: cell-based
T1 sequence (Q9Y2W7 1-256): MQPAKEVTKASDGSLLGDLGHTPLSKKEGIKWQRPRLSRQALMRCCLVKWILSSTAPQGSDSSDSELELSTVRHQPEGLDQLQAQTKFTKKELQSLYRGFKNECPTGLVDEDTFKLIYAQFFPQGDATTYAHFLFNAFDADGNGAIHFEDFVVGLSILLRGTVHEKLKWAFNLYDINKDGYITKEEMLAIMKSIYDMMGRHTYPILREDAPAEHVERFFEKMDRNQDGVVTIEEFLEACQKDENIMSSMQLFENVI
T1 sequence (Q9UK17 1-655 partner): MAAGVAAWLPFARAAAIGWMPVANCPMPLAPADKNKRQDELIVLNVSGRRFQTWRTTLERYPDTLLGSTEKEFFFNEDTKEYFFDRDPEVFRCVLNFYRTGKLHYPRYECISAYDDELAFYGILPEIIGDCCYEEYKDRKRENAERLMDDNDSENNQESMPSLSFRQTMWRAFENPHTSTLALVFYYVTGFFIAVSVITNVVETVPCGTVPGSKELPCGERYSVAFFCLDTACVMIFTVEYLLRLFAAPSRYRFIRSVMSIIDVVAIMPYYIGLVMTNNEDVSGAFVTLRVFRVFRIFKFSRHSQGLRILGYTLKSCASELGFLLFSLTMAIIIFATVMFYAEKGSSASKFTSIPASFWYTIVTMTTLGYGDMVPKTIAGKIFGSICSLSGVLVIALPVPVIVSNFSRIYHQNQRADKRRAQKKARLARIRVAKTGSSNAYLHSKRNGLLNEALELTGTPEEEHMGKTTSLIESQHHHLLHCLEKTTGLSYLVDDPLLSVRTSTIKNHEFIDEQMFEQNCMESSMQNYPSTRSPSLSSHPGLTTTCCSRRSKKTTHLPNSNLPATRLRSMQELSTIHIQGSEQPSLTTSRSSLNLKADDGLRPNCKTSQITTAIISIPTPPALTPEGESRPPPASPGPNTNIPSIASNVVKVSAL

KV4.3/KChIP3 [2] = molecular target: T2, KV4.3/KChIP3 (Homo sapiens, UniProt Q9Y2W7, Y130A); assay: whole-cell patch clamp, per cent block; type: cell-based; conditions: read-out: % inhibition at 30 nM
T2 sequence (Q9Y2W7 1-256 Y130A): T1 sequence (Q9Y2W7 1-256) with Y130A
T2 sequence (Q9UK17 1-655 partner): T1 sequence (Q9UK17 1-655 partner)

KChIP3 = molecular target: T3, KChIP3 (Homo sapiens, UniProt Q9Y2W7); assay: tryptophan fluorescence quenching; type: binding
T3 sequence (Q9Y2W7 1-256): T1 sequence (Q9Y2W7 1-256)

KV4.3/KChIP3 [3] = molecular target: T4, KV4.3/KChIP3 (Homo sapiens, UniProt Q9Y2W7, Y118A); assay: whole-cell patch clamp, per cent block; type: cell-based; conditions: read-out: % inhibition at 30 nM
T4 sequence (Q9Y2W7 1-256 Y118A): T1 sequence (Q9Y2W7 1-256) with Y118A
T4 sequence (Q9UK17 1-655 partner): T1 sequence (Q9UK17 1-655 partner)

KV4.3/KChIP3 [4] = molecular target: T5, KV4.3/KChIP3 (Homo sapiens, UniProt Q9Y2W7, K166A); assay: whole-cell patch clamp, per cent block; type: cell-based; conditions: read-out: % inhibition at 30 nM
T5 sequence (Q9Y2W7 1-256 K166A): T1 sequence (Q9Y2W7 1-256) with K166A
T5 sequence (Q9UK17 1-655 partner): T1 sequence (Q9UK17 1-655 partner)

KV4.3/KChIP3 [5] = molecular target: T1, KV4.3/KChIP3; assay: whole-cell patch clamp, per cent block; type: cell-based; conditions: read-out: % inhibition at 30 nM

Compound `O=C(Cc1cccc(-c2ccccc2)c1)Nc1cc(Cl)ccc1C(=O)O` [compound 1, 2-(2-([1,1’-biphenyl]-3-yl)acetamido)-4-chlorobenzoic acid] has an IC50 (KV4.3/KChIP3 [1]) of 0.03 µM, an inhibition at 0.03 µM (KV4.3/KChIP3 [2]) of 9.7 ± 2.5% and a Kd (KChIP3) of 0.23 ± 0.02 µM. For the same compound, the inhibition at 0.03 µM (KV4.3/KChIP3 [3]) was 17 ± 3.6%, the inhibition at 0.03 µM (KV4.3/KChIP3 [4]) was 9 ± 2.5% and the inhibition at 0.03 µM (KV4.3/KChIP3 [5]) was 23.2 ± 2.7%.
